From patent US20250171459A1, “2-METHYL-4',5'-DIHYDROSPIRO[PIPERIDINE-4,7'-THIENO[2,3-C]PYRAN] DERIVATIVES AS INHIBITORS OF APOL1 AND METHODS OF USING SAME” (Vertex Pharmaceuticals Incorporated, priority 2022, published 2025)
pIC50: −log10 of the molar value.

Biological target: T1, APOL1 (Homo sapiens, UniProt O14791)
T1 sequence (O14791 1-398 S342G/I384M): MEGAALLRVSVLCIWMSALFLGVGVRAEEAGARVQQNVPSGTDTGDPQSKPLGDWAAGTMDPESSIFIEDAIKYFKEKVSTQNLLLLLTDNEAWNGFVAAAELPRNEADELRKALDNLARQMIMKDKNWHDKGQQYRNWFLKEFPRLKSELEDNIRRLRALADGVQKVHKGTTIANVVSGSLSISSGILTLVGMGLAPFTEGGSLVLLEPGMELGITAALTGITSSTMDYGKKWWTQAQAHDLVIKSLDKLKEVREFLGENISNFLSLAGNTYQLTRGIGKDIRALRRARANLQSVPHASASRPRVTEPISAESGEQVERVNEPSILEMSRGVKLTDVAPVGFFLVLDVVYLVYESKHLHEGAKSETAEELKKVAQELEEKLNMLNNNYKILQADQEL
Experiment: MultiTox-Fluor Multiplex Cytotoxicity Assay in tet-inducible APOL1 T-REx-HEK293 cells (cell rescue, ratio of dead to live cells)
Assay type: cell-based
Conditions: tet-inducible transgenic APOL1 T-REx-HEK293 cell lines, 50 ng/mL tet, 24 hours; read-out: IP50 (i.e., IC50 for cell proliferation)
How it was run: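 T-REx-HEK293 cells with tet-inducible APOL1 were treated with compound (10 μM top, 10-point 3-fold dilution, duplicate) plus 50 ng/mL tetracycline for 24 h at 37° C, in DMEM with 2% tet-free FBS. MultiTox-Fluor protease signals gave a dead/live ratio, normalized to no tet (100% viability) and tet alone (0%).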

## CCc1cc2c(s1)CCO[C@@]21CCN(CCOC)[C@@H](C)C1 [Compound 278, (2′S,4R)-2-ethyl-1′-(2-methoxyethyl)-2′-methyl-spiro[6,7-dihydrothieno[3,2-c]pyran-4,4′-piperidine]]
  pIC50: 6.30 to 7.00

## CCc1cc2c(s1)CCO[C@@]21CCN(Cc2ccon2)[C@@H](C)C1 [Compound 279, (2′S,4R)-2-ethyl-1′-(isoxazol-3-ylmethyl)-2′-methyl-spiro[6,7-dihydrothieno[3,2-c]pyran-4,4′-piperidine]]
  pIC50: > 7.00

## CCc1cc2c(s1)CCO[C@@]21CCN(CC(O)CC#N)[C@@H](C)C1 (some centres unmarked) [Compound 280]
  pIC50: 6.30 to 7.00

## CCc1cc2c(s1)CCO[C@@]21CCN(CC(O)CO)[C@@H](C)C1 (some centres unmarked) [Compound 281]
  pIC50: 6.30 to 7.00

## CCc1cc2c(s1)CCO[C@@]21CCN(CC(O)CO)[C@@H](C)C1 (some centres unmarked) [Compound 282]
  pIC50: 6.00 to 6.30

## CCc1cc2c(s1)CCO[C@@]21CCN(CC(=O)OC)[C@@H](C)C1 [Compound 283]
  pIC50: 6.00 to 6.30

## CCc1cc2c(s1)CCO[C@@]21CCN(Cc2ncco2)[C@@H](C)C1 [Compound 284]
  pIC50: 6.00 to 6.30

## CCc1cc2c(s1)CCO[C@@]21CCN(CCn2cccn2)[C@@H](C)C1 [Compound 286]
  pIC50: 6.00 to 6.30

## CCc1cc2c(s1)CCO[C@@]21CCN(Cc2cc(C)on2)[C@@H](C)C1 [Compound 287]
  pIC50: > 7.00

## CCc1cc2c(s1)CCO[C@@]21CCN(Cc2c[nH]c(C)n2)[C@@H](C)C1 [Compound 288]
  pIC50: > 7.00

## CCc1cc2c(s1)CCO[C@@]21CCN(CC)[C@@H](C)C1 [Compound 289]
  pIC50: 6.30 to 7.00

## CCc1cc2c(s1)CCO[C@@]21CCN(CC(=O)C(C)(C)C)[C@@H](C)C1 [Compound 290]
  pIC50: 6.00 to 6.30

## CCc1cc2c(s1)CCO[C@@]21CCN(Cc2nc3ccccc3[nH]2)[C@@H](C)C1 [Compound 291]
  pIC50: 6.30 to 7.00

## CCc1cc2c(s1)CCO[C@@]21CCN(CC#N)[C@@H](C)C1 [Compound 292]
  pIC50: 6.30 to 7.00

## CCc1cc2c(s1)CCO[C@@]21CCN(Cc2ncon2)[C@@H](C)C1 [Compound 293]
  pIC50: 6.00 to 6.30

## CCc1cc2c(s1)CCO[C@@]21CCN(CC(F)F)[C@@H](C)C1 [Compound 294]
  pIC50: 6.00 to 6.30

## CCc1cc2c(s1)CCO[C@@]21CCN([C@@H]2CC[C@H](NC(=O)OC(C)(C)C)C2)[C@@H](C)C1 [Compound 295]
  pIC50: 6.30 to 7.00

## CCc1cc2c(s1)CCO[C@@]21CCN([C@H]2C[C@H](NC(=O)OC(C)(C)C)C2)[C@@H](C)C1 [Compound 297]
  pIC50: 6.00 to 6.30

## CCc1cc2c(s1)CCO[C@@]21CCN([C@H]2C[C@@H](NC(=O)OC(C)(C)C)C2)[C@@H](C)C1 [Compound 298]
  pIC50: 6.00 to 6.30

## CCc1cc2c(s1)CCO[C@@]21CCN(C[C@H]2C[C@@H](N)C2)[C@@H](C)C1 [Compound 299, 3-[[(2′S,4R)-2-ethyl-2′-methyl-spiro[6,7-dihydrothieno[3,2-c]pyran-4,4′-piperidine]-1′-yl]methyl]cyclobutanamine]
  pIC50: 6.30 to 7.00

## CCc1cc2c(s1)CCO[C@@]21CCN(C[C@H]2C[C@@H](NC(=O)C3CC(F)(F)C3)C2)[C@@H](C)C1 [Compound 300, N-[3-[[(2′S,4R)-2-ethyl-2′-methyl-spiro[6,7-dihydrothieno[3,2-c]pyran-4,4′-piperidine]-1′-yl]methyl]cyclobutyl]-3,3-difluoro-cyclobutanecarboxamide]
  pIC50: > 7.00

## CCc1cc2c(s1)CCO[C@@]21CCN(C[C@H]2C[C@@H](NC(=O)COCC(F)(F)F)C2)[C@@H](C)C1 [Compound 301, N-[3-[[(2′S,4R)-2-ethyl-2′-methyl-spiro[6,7-dihydrothieno[3,2-c]pyran-4,4′-piperidine]-1′-yl]methyl]cyclobutyl]-2-(2,2,2-trifluoroethoxy)acetamide]
  pIC50: 6.30 to 7.00

## CCc1cc2c(s1)CCO[C@@]21CCN(C[C@H]2C[C@@H](NC(=O)OC)C2)[C@@H](C)C1 [Compound 302, methyl N-[3-[[(2′S,4R)-2-ethyl-2′-methyl-spiro[6,7-dihydrothieno[3,2-c]pyran-4,4′-piperidine]-1′-yl]methyl]cyclobutyl]carbamate]
  pIC50: > 7.00
